This is an account of results in patent US6162417A, “Pyrrolo isoquinolines” (Emory University, priority 1998, dated 2000).

“Also recorded” adds a separate entry of the source. Read-outs that look alike come from different tables or passages of the source.

Series [1] has as its target T1, serotonin transporter (Rattus norvegicus, UniProt P31652).
T1 construct: in rat cortical and striatal homogenates; from tissue; host or cells: rat brain, striatal and cortical homogenates/membranes
Put plainly: Transporter binding site inhibition in rat brain striatal and cortical membranes - serotonin transporter ([3H]citalopram). Conditions: for in vitro affinity/selectivity for the serotonin transporter: rat membranes, Table 2. From the text:
(§1) Transporter Binding Site Inhibition Data for Various
(§2) Ligands in Rat Brain Striatial and Cortical Membranes

The target in the next series is T2, dopamine transporter (Rattus norvegicus, UniProt P23977).
T2 construct: in rat cortical and striatal homogenates; from tissue; host or cells: rat brain, striatal and cortical homogenates/membranes
Put plainly: Transporter binding site inhibition in rat brain striatal and cortical membranes - dopamine transporter ([3H]WIN 35428).
Description: as §1, §2

Series [2] has as its target T3, norepinephrine transporter (Rattus norvegicus, UniProt Q63380).
T3 construct: in rat cortical and striatal homogenates; from tissue; host or cells: rat brain, striatal and cortical homogenates/membranes
Put plainly: Transporter binding site inhibition in rat brain striatal and cortical membranes - norepinephrine transporter ([3H]desmethylimipramine). Conditions: vs. [3H]desmethylimipramine, read-out: NE Ki.
Description: as §1, §2

The target of series [3] is T4, human dopamine transporter (Homo sapiens, UniProt Q01959).
T4 construct: expressed in transfected cells; host or cells: MDCK (dog kidney) cells, stably transfected
Put plainly: Binding site inhibition in MDCK cell membranes transfected with human dopamine transporter ([3H]WIN 35428).

Series [4] deals with T5, human serotonin transporter (Homo sapiens, UniProt P31645).
T5 construct: expressed in transfected cells; host or cells: HEK-293, stably transfected
In words: Binding site inhibition in HEK-293 cell membranes transfected with human serotonin transporter ([3H]Citalopram). Conditions: for in vitro affinity/selectivity for transporter sites: human transporters, Table 3.

Series [5] deals with T6, human norepinephrine transporter (Homo sapiens, UniProt P23975).
T6 construct: expressed in transfected cells; host or cells: HEK-293, stably transfected
Put plainly: Binding site inhibition in HEK-293 cell membranes transfected with human norepinephrine transporter ([3H]Nisoxetine). The conditions noted are these: HEK-293 cells, human NE transporter; vs. [3H]Nisoxetine. The source says: ^2 [^3 H]Nisoxetine as reference/control for norepinephrine

Series [6] concerns serotonin transporter; dopamine transporter. In words: Regional brain uptake with and without preblocking by paroxetine or GBR 12909 (Table 5). The conditions noted are these: rat, 60 min. In kind it is in vivo, Sprague Dawley rats. How it is done:
(§3) Regional Uptake (% dose/gram) and Ratios of
(§4) 95% ee(6S, 10bR)-I-McN in Sprague Dawley Rats
(§5) (n = 4) at 60 Min Following Preblocking
(§6) (5 mg/kg i.v. 15 min prior to radioligand)

Assay in series [7]: as above
It counts as in vivo, Sprague Dawley rats. Conditions: rat, iv, 60 min. How it is done:
as §3, §4, §5, §6

Series [8] has as its system serotonin transporter. The conditions noted are these: carbon-11 label; cited from earlier work.
The mark [9] stands for this setting: rat striatal/cortical membranes, vs. [3H]citalopram, read-out: 5-HT Ki.
Where [10] appears, read: rat striatal/cortical membranes, vs. [3H]WIN 35428, read-out: DA Ki.
Where [11] appears, read: MDCK cells, human DA transporter, vs. [3H]WIN 35428, read-out: DA Ki.
Where [12] appears, read: HEK-293 cells, human serotonin transporter, vs. [3H]Citalopram, read-out: 5-HT Ki.
[13] abbreviates: dopamine blocker GBR 12909 5 mg/kg i.v. 15 min prior.
Setting [14] is: serotonin blocker paroxetine 5 mg/kg i.v. 15 min prior.

T4 sequence (Q01959 whole entry): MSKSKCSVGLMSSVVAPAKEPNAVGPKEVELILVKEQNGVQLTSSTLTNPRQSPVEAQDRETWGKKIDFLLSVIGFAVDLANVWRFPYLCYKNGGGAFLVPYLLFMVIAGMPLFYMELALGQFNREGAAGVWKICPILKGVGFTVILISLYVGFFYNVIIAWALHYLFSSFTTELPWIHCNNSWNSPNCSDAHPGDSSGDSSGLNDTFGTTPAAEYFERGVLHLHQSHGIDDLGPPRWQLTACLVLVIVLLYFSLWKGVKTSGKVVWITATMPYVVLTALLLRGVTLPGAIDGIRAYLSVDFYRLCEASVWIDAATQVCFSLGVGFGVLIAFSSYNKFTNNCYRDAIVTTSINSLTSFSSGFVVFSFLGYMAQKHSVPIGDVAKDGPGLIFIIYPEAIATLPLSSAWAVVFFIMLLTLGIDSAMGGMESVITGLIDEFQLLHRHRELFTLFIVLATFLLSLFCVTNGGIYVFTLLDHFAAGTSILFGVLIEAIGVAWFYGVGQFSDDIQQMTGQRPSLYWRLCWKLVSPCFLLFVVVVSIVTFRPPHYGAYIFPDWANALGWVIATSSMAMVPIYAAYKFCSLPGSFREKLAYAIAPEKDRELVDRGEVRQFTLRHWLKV
T6 sequence (P23975 whole entry): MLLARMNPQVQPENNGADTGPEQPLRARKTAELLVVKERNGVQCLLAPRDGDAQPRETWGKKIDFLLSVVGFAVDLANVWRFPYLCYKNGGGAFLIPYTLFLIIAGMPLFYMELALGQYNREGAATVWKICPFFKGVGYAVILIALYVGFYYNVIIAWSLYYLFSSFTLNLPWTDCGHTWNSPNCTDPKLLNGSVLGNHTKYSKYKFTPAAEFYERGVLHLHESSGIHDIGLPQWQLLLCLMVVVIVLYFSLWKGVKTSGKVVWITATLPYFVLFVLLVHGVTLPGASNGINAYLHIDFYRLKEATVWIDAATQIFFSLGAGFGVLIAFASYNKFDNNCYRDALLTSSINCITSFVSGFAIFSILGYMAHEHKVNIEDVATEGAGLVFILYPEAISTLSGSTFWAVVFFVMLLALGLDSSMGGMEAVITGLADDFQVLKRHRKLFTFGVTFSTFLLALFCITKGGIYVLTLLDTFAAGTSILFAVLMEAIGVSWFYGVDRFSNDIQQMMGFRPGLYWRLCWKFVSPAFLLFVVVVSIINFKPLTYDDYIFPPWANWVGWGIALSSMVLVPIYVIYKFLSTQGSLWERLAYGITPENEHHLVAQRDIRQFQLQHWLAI
T2 sequence (P23977 whole entry): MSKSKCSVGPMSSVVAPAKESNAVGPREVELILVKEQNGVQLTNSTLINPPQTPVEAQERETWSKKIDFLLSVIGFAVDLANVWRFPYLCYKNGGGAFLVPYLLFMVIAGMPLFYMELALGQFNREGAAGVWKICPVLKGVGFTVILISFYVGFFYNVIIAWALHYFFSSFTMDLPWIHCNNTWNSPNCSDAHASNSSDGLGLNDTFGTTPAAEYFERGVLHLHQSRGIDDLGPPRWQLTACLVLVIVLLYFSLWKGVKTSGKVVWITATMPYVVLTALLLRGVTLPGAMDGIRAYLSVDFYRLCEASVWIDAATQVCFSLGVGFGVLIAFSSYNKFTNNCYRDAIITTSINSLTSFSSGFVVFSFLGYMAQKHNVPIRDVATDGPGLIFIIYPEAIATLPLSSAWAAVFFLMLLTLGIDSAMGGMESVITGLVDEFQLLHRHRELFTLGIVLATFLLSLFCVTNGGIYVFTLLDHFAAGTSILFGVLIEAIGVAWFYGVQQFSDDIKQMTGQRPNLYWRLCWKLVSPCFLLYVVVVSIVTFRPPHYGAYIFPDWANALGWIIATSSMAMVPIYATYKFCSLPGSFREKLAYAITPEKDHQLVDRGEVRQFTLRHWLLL
T1 sequence (P31652 whole entry): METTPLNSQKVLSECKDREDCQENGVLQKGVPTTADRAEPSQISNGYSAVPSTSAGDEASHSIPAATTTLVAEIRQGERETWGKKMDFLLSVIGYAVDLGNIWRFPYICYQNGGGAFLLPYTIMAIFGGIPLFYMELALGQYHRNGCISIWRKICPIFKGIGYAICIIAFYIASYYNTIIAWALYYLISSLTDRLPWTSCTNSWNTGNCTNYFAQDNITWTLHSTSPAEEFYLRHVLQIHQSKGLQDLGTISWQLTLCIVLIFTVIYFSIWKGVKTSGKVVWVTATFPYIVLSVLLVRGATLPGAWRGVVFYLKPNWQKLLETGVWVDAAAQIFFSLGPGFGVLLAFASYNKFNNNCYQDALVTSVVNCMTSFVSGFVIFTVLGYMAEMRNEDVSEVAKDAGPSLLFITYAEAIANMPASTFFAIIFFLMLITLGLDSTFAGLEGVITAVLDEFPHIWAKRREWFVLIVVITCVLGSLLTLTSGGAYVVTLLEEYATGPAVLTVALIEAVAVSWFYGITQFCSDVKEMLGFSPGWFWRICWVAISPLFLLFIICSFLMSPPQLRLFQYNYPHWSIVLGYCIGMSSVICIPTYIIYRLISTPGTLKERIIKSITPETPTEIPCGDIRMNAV
T5 sequence (P31645 whole entry): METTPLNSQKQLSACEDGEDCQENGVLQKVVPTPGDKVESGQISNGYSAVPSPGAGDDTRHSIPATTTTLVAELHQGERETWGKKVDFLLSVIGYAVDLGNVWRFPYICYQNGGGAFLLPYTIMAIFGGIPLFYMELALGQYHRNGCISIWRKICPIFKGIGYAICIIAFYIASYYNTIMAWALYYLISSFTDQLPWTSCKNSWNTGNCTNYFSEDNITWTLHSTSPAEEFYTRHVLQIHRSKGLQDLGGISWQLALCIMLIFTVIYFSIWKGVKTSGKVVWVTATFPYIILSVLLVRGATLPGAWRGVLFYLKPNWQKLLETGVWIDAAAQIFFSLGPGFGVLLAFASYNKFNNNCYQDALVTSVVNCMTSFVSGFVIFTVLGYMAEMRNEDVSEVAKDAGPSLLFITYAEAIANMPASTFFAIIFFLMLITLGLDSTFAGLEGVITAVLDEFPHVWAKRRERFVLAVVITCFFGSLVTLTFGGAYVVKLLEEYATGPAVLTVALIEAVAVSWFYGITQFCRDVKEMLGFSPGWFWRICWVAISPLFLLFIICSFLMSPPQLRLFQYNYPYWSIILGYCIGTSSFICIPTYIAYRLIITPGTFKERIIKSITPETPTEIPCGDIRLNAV
T3 sequence (Q63380 1-617): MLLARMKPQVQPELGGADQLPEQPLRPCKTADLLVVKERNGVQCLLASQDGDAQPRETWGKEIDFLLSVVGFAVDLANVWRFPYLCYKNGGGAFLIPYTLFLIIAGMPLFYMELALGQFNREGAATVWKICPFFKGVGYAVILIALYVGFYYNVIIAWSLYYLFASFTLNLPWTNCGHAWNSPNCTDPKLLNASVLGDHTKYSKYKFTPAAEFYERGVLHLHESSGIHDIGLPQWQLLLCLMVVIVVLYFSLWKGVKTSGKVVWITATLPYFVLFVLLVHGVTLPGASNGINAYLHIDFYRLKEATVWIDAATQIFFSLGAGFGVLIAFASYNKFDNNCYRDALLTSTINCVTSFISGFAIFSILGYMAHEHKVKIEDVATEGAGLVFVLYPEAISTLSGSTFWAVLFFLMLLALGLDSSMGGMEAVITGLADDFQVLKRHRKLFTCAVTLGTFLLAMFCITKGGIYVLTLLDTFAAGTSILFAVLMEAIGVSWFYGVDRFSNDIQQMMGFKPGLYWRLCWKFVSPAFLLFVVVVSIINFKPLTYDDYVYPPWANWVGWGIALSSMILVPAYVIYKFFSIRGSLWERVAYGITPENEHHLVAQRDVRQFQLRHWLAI

As a reminder, the Ki is a measure of affinity in units of concentration, obtained from inhibition or displacement. `Brc1ccc([C@@H]2CN3CCC[C@@H]3c3ccccc32)cc1` (relative stereo) [compound 5, trans-1,2,3,5,6,10b-hexahydro-6-[4-bromophenyl]pyrrolo-[2,1-a]isoquinoline]: the “in vitro affinity/selectivity for the serotonin transporter” value on serotonin transporter [1] is reported as “high in vitro affinity for the serotonin transporter”. The Ki on serotonin transporter [1] (setting [9]) was 5.1 nM; on dopamine transporter (setting [10]) it was 9.6 nM; in series [2] it was 2390 nM.

For the molecule `Ic1ccc([C@@H]2CN3CCC[C@@H]3c3ccccc32)cc1` (relative stereo) [compound 6, trans-1,2,3,5,6,10b-hexahydro-6-[4-iodophenyl]pyrrolo-[2,1-a]isoquinoline], on serotonin transporter [1], the “in vitro affinity/selectivity for the serotonin transporter” value was “high in vitro affinity and good selectivity for the serotonin transporter”. In addition, the Ki was 2.3 nM on serotonin transporter [1] (setting [9]); 0.9 nM in series [3] (setting [11]); 0.9 nM in [4]; 10 nM in [5]; 14 nM at dopamine transporter (setting [10]); 961 nM in [2]. Moreover, the “in vitro affinity/selectivity for transporter sites” value in series [4] was “high affinity for both serotonin and dopamine transporter sites, and is selective for these two sites versus norepinephrine transporter site”.

On to `FC/C=C\c1ccc([C@@H]2CN3CCC[C@@H]3c3ccccc32)cc1` (relative stereo) [compound 19, trans-1,2,3,5,6,10b-hexahydro-6-[4'Z-(3-fluoro-1-propenyl)phenyl]pyrrolo-[2,1-a]isoquinoline], for which the Ki turned out to be 2.8 nM on serotonin transporter [1], 220 nM in [3] (setting [11]), 1 nM in series [4] and 221 nM at dopamine transporter. In addition, the “in vitro affinity/selectivity for the serotonin transporter” value at serotonin transporter [1] is “high affinity for and the most selectivity for the serotonin transporter”. Further, the “in vitro affinity/selectivity for transporter sites” value in [4] is “high selectivity and affinity for serotonin transporter sites, compared with dopamine transporter site; also recorded: more selective than McN-5652Z for the serotonin transporter site, compared to the dopamine transporter site; also recorded: very high and equal affinity for the serotonin transporter site”.

In the case of `Fc1cccc2c1[C@H]1CCCN1C[C@H]2c1ccc(Br)cc1` (relative stereo) [racemic Br, X = F at position 10], the Ki in series [3] (setting [11]) came to 0.15 nM; in series [4] (setting [12]), 1.6 nM; in [5] it was 5 nM. Also, in series [3] (human transporters, Table 3), the “affinity and selectivity for the dopamine transporter” value is “high affinity and selectivity for the dopamine transporter”.

On to `Brc1ccc([C@@H]2CN3CCC[C@@H]3c3ccccc32)cc1` (relative stereo) [racemic Br], for which the results for the inhibition constant Ki in series [3] (setting [11]), in [4] (setting [12]) and in series [5] were 0.07 nM, 0.68 nM and 2.3 nM, respectively.

As for `FCC#Cc1ccc([C@@H]2CN3CCC[C@@H]3c3ccccc32)cc1` (relative stereo) [racemic C=CCH2 F], the Ki turned out to be 11.3 nM in series [3] (setting [11]), 8.6 nM in series [4] (setting [12]) and 24 nM in series [5].

Consider `[123I]c1ccc([C@@H]2CN3CCC[C@@H]3c3ccccc32)cc1` [95% ee(6S, 10bR)-I-McN, [^123 I](+)-Trans-1,2,3,5,6,10b-hexaydro-6-[4-iodophenyl]-pyrrolo[2,1-a]isoquinoline], for which the Cortex/Cereb ratio was found to be 3.82 in series [6] (setting [13]), 4.08 in series [6] (no blocker) and 4.18 in [6] (setting [14]). Moreover, the results for the Hypthal/Cereb ratio in [6] (setting [13]), in series [6] (no blocker) and in series [6] (setting [14]) were 6.6, 8.15 and 4.65, respectively. Further, the PrefCx/Cereb ratio worked out at 5.1 in series [6] (setting [13]), 5.0 in [6] (no blocker) and 4.6 in series [6] (setting [14]). Besides, the Striatum/Cereb ratio in series [6] (setting [13]) stood at 2.47; in series [6] (no blocker), 4.8; in series [6] (setting [14]), 3.2. Further, the tissue uptake at 1 h amounted to 0.55 %ID/g in [7] (cerebellum, 5 mg/kg, dopamine blocker GBR 12909 5 mg/kg i.v. 15 min prior, read-out: Cerebellum uptake); 0.46 %ID/g in [7] (cerebellum, no blocker, read-out: Cerebellum uptake); 0.43 %ID/g in series [7] (cerebellum, serotonin blocker paroxetine 5 mg/kg i.v. 15 min prior, read-out: Cerebellum uptake); 2.1 %ID/g in [7] (cortex, 5 mg/kg, dopamine blocker GBR 12909 5 mg/kg i.v. 15 min prior, read-out: Cortex uptake); 1.88 %ID/g in series [7] (cortex, no blocker, read-out: Cortex uptake); 1.8 %ID/g in series [7] (cortex, serotonin blocker paroxetine 5 mg/kg i.v. 15 min prior, read-out: Cortex uptake). For the same molecule, the tissue uptake at 1 h in series [7] (hypothalamus, 5 mg/kg, dopamine blocker GBR 12909 5 mg/kg i.v. 15 min prior, read-out: Hypothalamus uptake) was 3.62 %ID/g; in series [7] (hypothalamus, no blocker, read-out: Hypothalamus uptake), 3.75 %ID/g; in series [7] (hypothalamus, serotonin blocker paroxetine 5 mg/kg i.v. 15 min prior, read-out: Hypothalamus uptake), 2 %ID/g; in series [7] (prefrontal cortex, 5 mg/kg, dopamine blocker GBR 12909 5 mg/kg i.v. 15 min prior, read-out: Prefrontal Cortex uptake), 2.8 %ID/g; in series [7] (prefrontal cortex, no blocker, read-out: Prefrontal Cortex uptake) it was 2.3 %ID/g; in series [7] (prefrontal cortex, serotonin blocker paroxetine 5 mg/kg i.v. 15 min prior, read-out: Prefrontal Cortex uptake) it was 1.98 %ID/g. The tissue uptake at 1 h in series [7] (striatum, 5 mg/kg, dopamine blocker GBR 12909 5 mg/kg i.v. 15 min prior, read-out: Striatum uptake) was 1.36 %ID/g; in series [7] (striatum, no blocker, read-out: Striatum uptake), 2.21 %ID/g; in series [7] (striatum, serotonin blocker paroxetine 5 mg/kg i.v. 15 min prior, read-out: Striatum uptake), 1.39 %ID/g.

For `[11CH3]Sc1ccc([C@H]2CN3CCC[C@H]3c3ccccc32)cc1` [Carbon-11 McN-5652Z], in the series on serotonin transporter [8], the “accumulation in brain regions” value is given as “greatest accumulation in brain regions rich in serotoninergic neurons”.

Take `COC(=O)[C@H]1[C@@H](c2ccc(I)cc2)C[C@@H]2CC[C@H]1N2C` [RTI-55 (CIT), reference compound]: the Ki is 0.47 nM in series [3], 0.67 nM in series [4] (setting [12]) and 38.9 nM in [5]. Also, the “in vitro affinity/selectivity for transporter sites” value in series [4] is “high affinity for both serotonin and dopamine transporter sites, and is selective for these two sites versus norepinephrine transporter site”.

Consider `Ic1ccc([C@@H]2CN3CCC[C@@H]3c3ccccc32)cc1` [compound 6, trans (95% ee) (6S, 10bR), (+)-(6S, 10bR)-1,2,3,5,6,10b-hexahydro-6-(4'-iodophenyl)pyrrolo[2,1-a]isoquinoline], for which the inhibitory constant (Ki) was 0.9 nM in series [3] (setting [11]), 0.9 nM in [4] and 10 nM in series [5].
